ChEMBL document CHEMBL1201862, “PubChem BioAssay data set” (2004)
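Each compound was tested at five concentrations against cells in 96-well plates for 48 hours. GI50 is the concentration that inhibits growth by half.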 The source made the active and inactive calls. No stated cut-off is given here; in the data, active = GI50 up to about 1.1 µM and inactive = higher.

Tests used:
Test in all cases: NCI anticancer screen, dose series, 48 h
786-0 = system: 786-0
CAKI-1 = system: CAKI-1
HL-60 = system: HL-60
HOP-62 = system: HOP-62
HOP-92 = system: HOP-92
M14 = system: M14
MOLT-4 = system: MOLT-4
NCI-H460 = system: NCI-H460
NCI/ADR-RES = system: NCI/ADR-RES
OVCAR-3 = system: OVCAR-3
OVCAR-5 = system: OVCAR-5
OVCAR-8 = system: OVCAR-8
RXF 393 = system: RXF 393
SF-539 = system: SF-539
SK-MEL-28 = system: SK-MEL-28
SK-MEL-2 = system: SK-MEL-2
SK-OV-3 = system: SK-OV-3
SNB-75 = system: SNB-75
UO-31 = system: UO-31
HCC 2998 = system: HCC 2998

Row | SMILES | GI50 (786-0) | GI50 (CAKI-1) | GI50 (HL-60) | GI50 (HOP-62) | GI50 (HOP-92) | GI50 (M14) | GI50 (MOLT-4) | GI50 (NCI-H460) | GI50 (NCI/ADR-RES) | GI50 (OVCAR-3) | GI50 (OVCAR-5) | GI50 (OVCAR-8) | GI50 (RXF 393) | GI50 (SF-539) | GI50 (SK-MEL-28) | GI50 (SK-MEL-2) | GI50 (SK-OV-3) | GI50 (SNB-75) | GI50 (UO-31) | GI50 (HCC 2998)
1 | CN(C)CCCNC(=O)c1cc(NC(=O)CCCn2c3ccccc3c3ccccc32)cn1C | 80.9 µM (inactive) | 21.8 µM (inactive) | 22.5 µM (inactive) | > 100 µM (inactive) | 2.13 µM (inactive) | 28.1 µM (inactive) | 11.4 µM (inactive) | 28.8 µM (inactive) | > 100 µM (inactive) | 11.5 µM (inactive) | 73.6 µM (inactive) | 48.3 µM (inactive) | 32.8 µM (inactive) | 71.3 µM (inactive) | 49.7 µM (inactive) | 34.8 µM (inactive) | > 100 µM (inactive) | 43 µM (inactive) | 25.5 µM (inactive) | 
2 | CCOC(=O)/C=C/C1=C(Br)[C@@]2(C)CC[C@@H]3c4ccc(O)cc4CC[C@H]3[C@@H]2C1 | 12.8 µM (inactive) | 16.4 µM (inactive) | 17.9 µM (inactive) | 14.4 µM (inactive) | 11.6 µM (inactive) | 11.7 µM (inactive) | 12.5 µM (inactive) | 14.7 µM (inactive) | 14.7 µM (inactive) | 7.94 µM (inactive) | 15.2 µM (inactive) |  | 15.7 µM (inactive) | 17 µM (inactive) | 16.4 µM (inactive) | 14.9 µM (inactive) | 15.4 µM (inactive) |  | 16.8 µM (inactive) | 14.8 µM (inactive)
3 | Oc1c(N2CCCCC2)cc(-c2cc(N3CCCCC3)c(O)c3ccccc23)c2ccccc12 | 22.3 µM (inactive) | > 100 µM (inactive) | 27.7 µM (inactive) | 32.1 µM (inactive) | 23.4 µM (inactive) | 16.7 µM (inactive) | 22.9 µM (inactive) | 43 µM (inactive) | 34.2 µM (inactive) | 23.3 µM (inactive) | 72.4 µM (inactive) | 33 µM (inactive) | 20.4 µM (inactive) | 33.2 µM (inactive) | 19.9 µM (inactive) | 25.2 µM (inactive) | > 100 µM (inactive) |  | > 100 µM (inactive) | 33.5 µM (inactive)
4 | Cc1cn(C2CC(N)C(C(=O)O)O2)c(=O)[nH]c1=O (stereo not given) | > 100 µM (inactive) | > 100 µM (inactive) | > 100 µM (inactive) | > 100 µM (inactive) | > 100 µM (inactive) | > 100 µM (inactive) | > 100 µM (inactive) | > 100 µM (inactive) | > 100 µM (inactive) | > 100 µM (inactive) | > 100 µM (inactive) | > 100 µM (inactive) |  | > 100 µM (inactive) |  | > 100 µM (inactive) | > 100 µM (inactive) | > 100 µM (inactive) | > 100 µM (inactive) | > 100 µM (inactive)
5 | CCN(CC)CCNc1c(OC)cc(C)c2sc3ccccc3c(=O)c12 | 7.53 µM (inactive) | 7.96 µM (inactive) | 5.45 µM (inactive) | 10.8 µM (inactive) | 16.9 µM (inactive) | 3.71 µM (inactive) | 2.31 µM (inactive) | 4.5 µM (inactive) | 5.27 µM (inactive) | 11.8 µM (inactive) | 3.72 µM (inactive) | 7.82 µM (inactive) | 10.1 µM (inactive) | 10.6 µM (inactive) | 1.92 µM (inactive) | 12.6 µM (inactive) | 13.9 µM (inactive) | 12.9 µM (inactive) | 6.32 µM (inactive) | 
6 | CC(Cc1ccccc1)N(C)Cc1nc(C2CCC([N+](=O)[O-])O2)no1 (stereo not given) | 11.9 µM (inactive) |  | 6.49 µM (inactive) | 7.43 µM (inactive) | 21.3 µM (inactive) | 6 µM (inactive) | 19.5 µM (inactive) |  | 11.9 µM (inactive) |  | 15.6 µM (inactive) | 12.7 µM (inactive) | 19 µM (inactive) | 3.32 µM (inactive) | 11.9 µM (inactive) |  | 24.5 µM (inactive) | 10.3 µM (inactive) | 7.29 µM (inactive) | 4.17 µM (inactive)
7 | O=C(O)c1cccc(/N=N/c2c(S(=O)(=O)O)ccc3c2C(=O)c2ccccc2C3=O)c1O | > 100 µM (inactive) | > 100 µM (inactive) | > 100 µM (inactive) | > 100 µM (inactive) | > 100 µM (inactive) | > 100 µM (inactive) | > 100 µM (inactive) | > 100 µM (inactive) | > 100 µM (inactive) | > 100 µM (inactive) | > 100 µM (inactive) | > 100 µM (inactive) | > 100 µM (inactive) | > 100 µM (inactive) | > 100 µM (inactive) | > 100 µM (inactive) | > 100 µM (inactive) | > 100 µM (inactive) | > 100 µM (inactive) | 
8 | Cc1ccc(S(=O)(=O)N(CC(O)COc2ccccc2)c2c(F)c(F)c(F)c(F)c2F)cc1 (stereo not given) | 19.5 µM (inactive) | 0.237 µM (active) | 6.32 µM (inactive) | 16.7 µM (inactive) | 8.49 µM (inactive) | 20 µM (inactive) | 21.6 µM (inactive) | 14.4 µM (inactive) | 17 µM (inactive) | 17.3 µM (inactive) | 18.3 µM (inactive) | 17.1 µM (inactive) |  | 19.8 µM (inactive) | 16.9 µM (inactive) | 16.4 µM (inactive) | 19.9 µM (inactive) | 16.3 µM (inactive) | 12.6 µM (inactive) | 17.3 µM (inactive)
9 | CCOc1ccc2ccccc2c1NC1=NCCO1 | > 100 µM (inactive) |  | 19.9 µM (inactive) | 28.2 µM (inactive) | 15.3 µM (inactive) | 37.2 µM (inactive) | 27.5 µM (inactive) | 12.7 µM (inactive) | 70.3 µM (inactive) |  | > 100 µM (inactive) | 74.6 µM (inactive) | 98.6 µM (inactive) | 49.3 µM (inactive) | > 100 µM (inactive) |  | 39.5 µM (inactive) | 34.6 µM (inactive) | 21 µM (inactive) | 38.5 µM (inactive)
10 | COC(=O)c1cc(C)n2c1CS[C@@H]2c1ccccc1 | 50.6 µM (inactive) | 38.7 µM (inactive) | 26.2 µM (inactive) | 37.8 µM (inactive) | 22.4 µM (inactive) | 24.9 µM (inactive) | 22.5 µM (inactive) |  | 25.1 µM (inactive) | 32.4 µM (inactive) | > 100 µM (inactive) | 44.4 µM (inactive) | 18.6 µM (inactive) |  | > 100 µM (inactive) | 28.4 µM (inactive) | 46 µM (inactive) | 16.5 µM (inactive) | 28.4 µM (inactive) | 
11 | CO[C@]12C[C@@H](CNC(=O)c3cc(Br)c[nH]3)O[C@H]1NC(=O)N2 | > 100 µM (inactive) | > 100 µM (inactive) | > 100 µM (inactive) | > 100 µM (inactive) | > 100 µM (inactive) | > 100 µM (inactive) | > 100 µM (inactive) | > 100 µM (inactive) | > 100 µM (inactive) | > 100 µM (inactive) | > 100 µM (inactive) | > 100 µM (inactive) |  | > 100 µM (inactive) | > 100 µM (inactive) | > 100 µM (inactive) | > 100 µM (inactive) | > 100 µM (inactive) | > 100 µM (inactive) | > 100 µM (inactive)
12 | COC(=O)[C@H](Cc1c[nH]c2ccccc12)NC(=O)OCC1OC(n2cc(C)c(=O)[nH]c2=O)CC1N=[N+]=[N-] (stereo not given in full) | > 100 µM (inactive) | > 100 µM (inactive) | > 100 µM (inactive) | > 100 µM (inactive) | > 100 µM (inactive) | > 100 µM (inactive) | 33.6 µM (inactive) | 49.4 µM (inactive) | > 100 µM (inactive) | > 100 µM (inactive) | > 100 µM (inactive) | > 100 µM (inactive) | > 100 µM (inactive) |  |  | > 100 µM (inactive) | > 100 µM (inactive) | 84.5 µM (inactive) | > 100 µM (inactive) | > 100 µM (inactive)
13 | COc1nc(N)nc2c1ncn2C1CC(O)C(CO)O1 (stereo not given) | > 100 µM (inactive) | > 100 µM (inactive) | > 100 µM (inactive) | > 100 µM (inactive) | > 100 µM (inactive) | > 100 µM (inactive) | > 100 µM (inactive) | > 100 µM (inactive) | > 100 µM (inactive) | > 100 µM (inactive) | > 100 µM (inactive) | > 100 µM (inactive) | > 100 µM (inactive) | > 100 µM (inactive) | > 100 µM (inactive) | > 100 µM (inactive) | > 100 µM (inactive) | > 100 µM (inactive) | > 100 µM (inactive) | 
14 | N=C(N)c1ccc(/N=N/c2c(O)ccc3cc(O)ccc23)cc1 | > 100 µM (inactive) | > 100 µM (inactive) | > 100 µM (inactive) | > 100 µM (inactive) | > 100 µM (inactive) | > 100 µM (inactive) | > 100 µM (inactive) | > 100 µM (inactive) | > 100 µM (inactive) | > 100 µM (inactive) | > 100 µM (inactive) | > 100 µM (inactive) | > 100 µM (inactive) | > 100 µM (inactive) | > 100 µM (inactive) | > 100 µM (inactive) | > 100 µM (inactive) |  | > 100 µM (inactive) | > 100 µM (inactive)
15 | C[C@H](CCC(=O)NCCS(=O)(=O)O)[C@H]1CC[C@H]2[C@@H]3[C@H](O)C[C@@H]4C[C@H](O)CC[C@]4(C)[C@H]3CC[C@]12C | > 100 µM (inactive) | > 100 µM (inactive) | > 100 µM (inactive) | > 100 µM (inactive) | > 100 µM (inactive) | > 100 µM (inactive) | > 100 µM (inactive) | > 100 µM (inactive) | 45.9 µM (inactive) | > 100 µM (inactive) | > 100 µM (inactive) | > 100 µM (inactive) | > 100 µM (inactive) | > 100 µM (inactive) | > 100 µM (inactive) | > 100 µM (inactive) | > 100 µM (inactive) |  | > 100 µM (inactive) | > 100 µM (inactive)
